The test system of this test is mutant Huntington (HTT) protein. The test can be described thus: HTT Mutant HTRF iPSC assay (mHTT protein lowering). It is filed as cell-based. The settings on record: human iPSC derived from a HTT patient with a poly-Q49 mutation.
Usually IC50 stands for the concentration that inhibits the measured activity by half. Read a low IC50 as higher potency. The compound `Cc1cn2cc(NC(=O)c3cc4ccc(C5CCNC(C)(C)C5)nc4s3)cc(F)c2n1` (stereo not shown) [Compound 176, 6-(2,2-dimethylpiperidin-4-yl)-N-(8-fluoro-2-methylimidazo[1,2-a]pyridin-6-yl)thieno[2,3-b]pyridine-2-carboxamide] yielded a 50% inhibitory concentration (IC50) below 100 nM.

As to `COc1cc2nn(C)cc2cc1NC(=O)c1cc2ccc(C3CCN(C)CC3)nc2s1` [Compound 178, N-(6-methoxy-2-methyl-2H-indazol-5-yl)-6-(1-methylpiperidin-4-yl)thieno[2,3-b]pyridine-2-carboxamide], the IC50 was below 100 nM.

`Cc1cn2cc(NC(=O)c3cc4ccc(C5CNC(C)C5)nc4s3)cc(F)c2n1` (stereo not shown) [Compound 179, N-(8-fluoro-2-methylimidazo[1,2-a]pyridin-6-yl)-6-(5-methylpyrrolidin-3-yl)thieno[2,3-b]pyridine-2-carboxamide] displayed an IC50 below 100 nM.

`Cc1cn2cc(NC(=O)c3cc4ccc(C5CCC6(CNC6)C5)nc4s3)cc(F)c2n1` (stereo not shown) [Compound 182, N-(8-fluoro-2-methylimidazo[1,2-a]pyridin-6-yl)-6-(2-azaspiro[3.4]octan-6-yl)thieno[2,3-b]pyridine-2-carboxamide] yielded an IC50 of 100 to 1000 nM.

The compound `CCN1CCN(c2ccc3cc(C(=O)Nc4cc5cc(C)nn5cc4OC)sc3n2)CC1` [Compound 183, 6-(4-ethylpiperazin-1-yl)-N-(6-methoxy-2-methylpyrazolo[1,5-a]pyridin-5-yl)thieno[2,3-b]pyridine-2-carboxamide] gave an IC50 below 100 nM.

`COc1nc(NC(=O)c2cc3ccc(C4CCN(C)CC4)nc3s2)cn2cc(C)nc12` [Compound 184, N-(8-methoxy-2-methylimidazo[1,2-a]pyrazin-6-yl)-6-(1-methylpiperidin-4-yl)thieno[2,3-b]pyridine-2-carboxamide] returned an IC50 below 100 nM.

`Cc1cn2cc(NC(=O)c3cc4ccc(N5C[C@@H]6C[C@H]5CN6C(C)C)nc4s3)cc(F)c2n1` [Compound 189, N-(8-fluoro-2-methylimidazo[1,2-a]pyridin-6-yl)-6-((1S,4S)-5-isopropyl-2,5-diazabicyclo[2.2.1]heptan-2-yl)thieno[2,3-b]pyridine-2-carboxamide] gave an IC50 below 100 nM.

`COc1cn2nc(C)cc2cc1NC(=O)c1cc2ccc(N3CCC(N(C)C)C3)nc2s1` (stereo not shown) [Compound 190, 6-(3-(dimethylamino)pyrrolidin-1-yl)-N-(6-methoxy-2-methylpyrazolo[1,5-a]pyridin-5-yl)thieno[2,3-b]pyridine-2-carboxamide] yielded an IC50 below 100 nM.

In turn, `COc1nc(NC(=O)c2cc3ccc(N4CCC(N(C)C)C4)nc3s2)cn2cc(C)nc12` (stereo not shown) [Compound 191, 6-(3-(dimethylamino)pyrrolidin-1-yl)-N-(8-methoxy-2-methylimidazo[1,2-a]pyrazin-6-yl)thieno[2,3-b]pyridine-2-carboxamide] came in with an IC50 below 100 nM.

Regarding `CN(C)[C@@H]1CCN(c2ccc3cc(C(=O)Nc4cc(F)c5nn(C)cc5c4)sc3n2)C1` [Compound 192, (R)-6-(3-(dimethylamino)pyrrolidin-1-yl)-N-(7-fluoro-2-methyl-2H-indazol-5-yl)thieno[2,3-b]pyridine-2-carboxamide], the IC50 was below 100 nM.

`Cc1cn2cc(NC(=O)c3cc4ccc(N5CCNC6(CC6)C5)nc4s3)nc(C)c2n1` [Compound 193, N-(2,8-dimethylimidazo[1,2-a]pyrazin-6-yl)-6-(4,7-diazaspiro[2.5]octan-7-yl)thieno[2,3-b]pyridine-2-carboxamide] came in with an IC50 below 100 nM.

Regarding `[2H]C([2H])([2H])N1CCN(c2ccc3cc(C(=O)Nc4cn5cc(C)nc5c(C)n4)sc3n2)CC1` [Compound 195, N-(2,8-dimethylimidazo[1,2-a]pyrazin-6-yl)-6-(4-(methyl-d3)piperazin-1-yl)thieno[2,3-b]pyridine-2-carboxamide], the IC50 is below 100 nM.

As for `Cc1cn2cc(NC(=O)c3cc4ccc(N5C[C@@H]6CNC[C@@H]65)nc4s3)cc(F)c2n1` [Compound 196, 6-((1S,5R)-3,6-diazabicyclo[3.2.0]heptan-6-yl)-N-(8-fluoro-2-methylimidazo[1,2-a]pyridin-6-yl)thieno[2,3-b]pyridine-2-carboxamide], the IC50 was below 100 nM.

Consider `CNC1CN(c2ccc3cc(C(=O)Nc4cc(F)c5nc(C)cn5c4)sc3n2)C1` [Compound 197, N-(8-fluoro-2-methylimidazo[1,2-a]pyridin-6-yl)-6-(3-(methylamino)azetidin-1-yl)thieno[2,3-b]pyridine-2-carboxamide], for which the IC50 is below 100 nM.

On to `Cc1cn2cc(NC(=O)c3cc4ccc(N5CCC6NCC65)nc4s3)cc(F)c2n1` (stereo not shown) [Compound 200, 6-(2,6-diazabicyclo[3.2.0]heptan-2-yl)-N-(8-fluoro-2-methylimidazo[1,2-a]pyridin-6-yl)thieno[2,3-b]pyridine-2-carboxamide], for which the IC50 is below 100 nM.

`Cc1cn2cc(NC(=O)c3cc4ccc(N5CCC6CNCC65)nc4s3)cc(F)c2n1` (stereo not shown) [Compound 201, N-(8-fluoro-2-methylimidazo[1,2-a]pyridin-6-yl)-6-(hexahydropyrrolo[3,4-b]pyrrol-1(2H)-yl)thieno[2,3-b]pyridine-2-carboxamide] yielded an IC50 below 100 nM.

The compound `Cc1cn2cc(NC(=O)c3cc4ccc(N5C[C@H]6CN[C@H]6C5)nc4s3)cc(F)c2n1` [Compound 202, 6-((1R,5R)-3,6-diazabicyclo[3.2.0]heptan-3-yl)-N-(8-fluoro-2-methylimidazo[1,2-a]pyridin-6-yl)thieno[2,3-b]pyridine-2-carboxamide] gave an IC50 below 100 nM.

Compound `Cc1cn2cc(NC(=O)c3cc4ccc(N5CC(N(C)C)C(C)(C)C5)nc4s3)cc(F)c2n1` (stereo not shown) [Compound 203, 6-(4-(dimethylamino)-3,3-dimethylpyrrolidin-1-yl)-N-(8-fluoro-2-methylimidazo[1,2-a]pyridin-6-yl)thieno[2,3-b]pyridine-2-carboxamide] displayed an IC50 below 100 nM.

As for `Cc1cn2cc(NC(=O)c3cc4ccc(N5CC(N(C)C)C5)nc4s3)cc(F)c2n1` [Compound 204, 6-(3-(dimethylamino)azetidin-1-yl)-N-(8-fluoro-2-methylimidazo[1,2-a]pyridin-6-yl)thieno[2,3-b]pyridine-2-carboxamide], the IC50 was below 100 nM.

`Cc1cn2cc(NC(=O)c3cc4ccc(N5CCC(N6CC7(CC7)C6)C5)nc4s3)cc(F)c2n1` (stereo not shown) [Compound 207, 6-(3-(5-azaspiro[2.3]hexan-5-yl)pyrrolidin-1-yl)-N-(8-fluoro-2-methylimidazo[1,2-a]pyridin-6-yl)thieno[2,3-b]pyridine-2-carboxamide] displayed an IC50 below 100 nM.

For the compound `Cc1cn2cc(NC(=O)c3cc4ccc(N5CCC6(CCCN6C)C5)nc4s3)nc(C)c2n1` (stereo not shown) [Compound 208, N-(2,8-dimethylimidazo[1,2-a]pyrazin-6-yl)-6-(1-methyl-1,7-diazaspiro[4.4]nonan-7-yl)thieno[2,3-b]pyridine-2-carboxamide], the IC50 is below 100 nM.

For `Cc1cn2cc(NC(=O)c3cc4ccc(N5CCC56CCNC6)nc4s3)cc(F)c2n1` (stereo not shown) [Compound 209, N-(8-fluoro-2-methylimidazo[1,2-a]pyridin-6-yl)-6-(1,6-diazaspiro[3.4]octan-1-yl)thieno[2,3-b]pyridine-2-carboxamide], the IC50 is below 100 nM.

Source of the values: patent publication US20260035387A1 (BIOGEN MA INC., priority 2022, published 2026).
